Assay results: patent publication US8097752B2, “Antiprotozoal ring-substituted phospholipids” (priority 2002, dated 2012)
Where a name gives a salt, the structure may show the parent alone.

Experiments:
[1] = tested on: promastigote forms of Leishmania infantum; experiment: In vitro antileishmanial activity in promastigote cultures (MTT), L. infantum; format: cell-based, Leishmania infantum MHOM/TN/80/IPT1/LEM 235; conditions: promastigotes, 72 h incubation, mean ± SEM, n = 3-4 (each run in duplicate), read-out: IC50 (μM) L. infantum MON 235
Procedure: (§1) Determination of in Vitro Antileishmanial Activity in Promastigote Cultures.
(§2) The effect of the phospholipids according to the present invention against the promastigote forms of Leishmania donovani and Leishmania infantum was evaluated using an MTT (3-(4,5-dimethylthiazol-2yl)-2,5-diphenyltetrazolium bromide)-based enzymatic method as a marker of cell viability and was compared with that of the ether phospholipid hexadecylphosphocholine (Miltefosine). Thus, promastigotes of Leishmania infantum MHOM/TN/80/IPT1/LEM 235 and Leishmania donovani MHOM/IN/80/DD8/LEM 703, were grown in RPMI 1640 supplemented with 10% FCS, L. glutamine and antibiotics, at 26° C. All new compounds were dissolved in DMSO to a final concentration of 9.625 mM and linear 3-fold dilutions were done in the culture medium. 25 μL of promastigote culture at 5×10^5 cells/mL were cultured in a 96-well flat-bottom plate (Costar 3696), and incubated with 25 μL of different drug concentrations at 26° C. After 72 h, 10 μL of 5 mg/mL MTT in PBS (SIGMA M2128) were added and incubation was continued for 3 h. The reaction was stopped by the addition of 50 μL of 50% isopropanol, 10% SDS under gentle shacking for 30 min. Absorbance was measured at 550 nm with reference at 620 nm in a TRITURUS microplate reader.

[2] = tested on: promastigote forms of Leishmania donovani; experiment: In vitro antileishmanial activity in promastigote cultures (MTT), L. donovani; format: cell-based, Leishmania donovani MHOM/IN/80/DD8/LEM 703; conditions: promastigotes, 72 h incubation, mean ± SEM, n = 3-4 (each run in duplicate), read-out: IC50 (μM) L. donovani MON 703
Procedure: as §1, §2

Compound	IC50 [1]	IC50 [2]
CCCCCCCCCCCC=C1CCC(OCCOP(=O)([O-])OCC[N+](C)(C)C)CC1 (stereo not drawn) [Example 1, 1-{2-{[(4-Dodecylidenecyclohexyloxy)ethyloxy]hydroxyphosphinyloxy}ethyl}-N,N,N-trimethylammonium inner salt]	3.25 ± 0.65 µM	7.08 ± 1.2 µM
CCCCCCCCCCCC=C1CCC(OCCOP(=O)([O-])OCC[N+]2(C)CCCCC2)CC1 (stereo not drawn) [Example 2, 1-{2-{[(4-Dodecylidenecyclohexyloxy)ethyloxy]hydroxyphosphinyloxy}ethyl}-1-methylpiperidinium inner salt]	23.1 ± 3.6 µM	22 ± 3.25 µM
CCCCCCCCCCCC=C1CCC(OCCOP(=O)([O-])OCC[N+]2(C)CCOCC2)CC1 (stereo not drawn) [Example 3, 1-{2-{[(4-Dodecylidenecyclohexyloxy)ethyloxy]hydroxyphosphinyloxy}ethyl}-1-methylmorpholinium inner salt]	16.5 ± 1.8 µM	50.7 ± 3.6 µM
CCCCCCCCCCCCCC=C1CCC(OCCOP(=O)([O-])OCC[N+](C)(C)C)CC1 (stereo not drawn) [Example 4, 1-{2-{[(4-Tetradecylidenecyclohexyloxy)ethyloxy]hydroxyphosphinyloxy}ethyl}-N,N,N-trimethylammonium inner salt]	5.25 ± 0.45 µM	3.91 ± 0.21 µM
CCCCCCCCCCCCCC=C1CCC(OCCOP(=O)([O-])OCC[N+]2(C)CCCCC2)CC1 (stereo not drawn) [Example 5, 1-{2-{[(4-Tetradecylidenecyclohexyloxy)ethyloxy]hydroxyphosphinyloxy}ethyl}-1-methylpiperidinium inner salt]	11.4 ± 2.4 µM	29.7 ± 3.6 µM
CCCCCCCCCCCCCC=C1CCC(OCCOP(=O)([O-])OCC[N+]2(C)CCOCC2)CC1 (stereo not drawn) [Example 6, 1-{2-{[(4-Tetradecylidenecyclohexyloxy)ethyloxy]hydroxyphosphinyloxy}ethyl}-1-methylmorpholinium inner salt]	15.5 ± 1.8 µM	38.6 ± 3.2 µM
CCCCCCCCCCCCCCCC=C1CCC(OCCOP(=O)([O-])OCC[N+](C)(C)C)CC1 (stereo not drawn) [Example 7, 1-{2-{[(4-Hexadecylidenecyclohexyloxy)ethyloxy]hydroxyphosphinyloxy}ethyl}-N,N,N-trimethylammonium inner salt]	21.2 ± 2.6 µM	45.1 ± 7.2 µM
CCCCCCCCCCCCCCCC=C1CCC(OCCOP(=O)([O-])OCC[N+]2(C)CCCCC2)CC1 (stereo not drawn) [Example 8, 1-{2-{[(4-Hexadecylidenecyclohexyloxy)ethyloxy]hydroxyphosphinyloxy}ethyl}-1-methylpiperidinium inner salt]	6.5 ± 1.7 µM	22 ± 1.99 µM
CCCCCCCCCCCCCCCC=C1CCC(OCCOP(=O)([O-])OCC[N+]2(C)CCOCC2)CC1 (stereo not drawn) [Example 9, 1-{2-{[(4-Hexadecylidenecyclohexyloxy)ethyloxy]hydroxyphosphinyloxy}ethyl}-1-methylmorpholinium inner salt]	3.7 ± 0.71 µM	16.2 ± 2.29 µM
C[N+](C)(C)CCOP(=O)([O-])OCCCCC=C1CCCCC1 [Example 10, 1-{2-[(5-Cyclohexylidenepentyloxy)hydroxyphosphinyloxy]ethyl}-N,N,N-trimethylammonium inner salt]	> 100 µM	> 100 µM
C[N+]1(CCOP(=O)([O-])OCCCCC=C2CCCCC2)CCCCC1 [Example 11, 1-{2-[(5-Cyclohexylidenepentyloxy)hydroxyphosphinyloxy]ethyl}-1-methylpiperidinium inner salt]	> 100 µM	> 100 µM
C[N+]1(CCOP(=O)([O-])OCCCCC=C2CCCCC2)CCOCC1 [Example 12, 1-{2-[(5-Cyclohexylidenepentyloxy)hydroxyphosphinyloxy]ethyl}-1-methylmorpholinium inner salt]	> 100 µM	> 100 µM
C[N+]1(CCOP(=O)([O-])OCCCCCCCCCCC=C2CCCCC2)CCCCC1 [Example 14, 1-{2-[(11-Cyclohexylideneundecyloxy)hydroxyphosphinyloxy]ethyl}-1-methylpiperidinium inner salt]	47.6 ± 7.33 µM	8.7 ± 1 µM
C[N+]1(CCOP(=O)([O-])OCCCCCCCCCCC=C2CCCCC2)CCOCC1 [Example 15, 1-{2-[(11-Cyclohexylideneundecyloxy)hydroxyphosphinyloxy]ethyl}-1-methylmorpholinium inner salt]	22.8 ± 1.7 µM	8.25 ± 0.25 µM
C[N+](C)(C)CCOP(=O)([O-])OCCCCC=C1C2CC3CC(C2)CC1C3 [Example 16, 1-{2-[(5-Adamantylidenepentyloxy)hydroxyphosphinyloxy]ethyl}-N,N,N-trimethylammonium inner salt]	> 100 µM	4.99 ± 1.5 µM
C[N+]1(CCOP(=O)([O-])OCCCCC=C2C3CC4CC(C3)CC2C4)CCCCC1 [Example 17, 1-{2-[(5-Adamantylidenepentyloxy)hydroxyphosphinyloxy]ethyl}-1-methylpiperidinium inner salt]	> 100 µM	> 100 µM
C[N+]1(CCOP(=O)([O-])OCCCCC=C2C3CC4CC(C3)CC2C4)CCOCC1 [Example 18, 1-{2-[(5-Adamantylidenepentyloxy)hydroxyphosphinyloxy]ethyl}-1-methylmorpholinium inner salt]	> 100 µM	46.9 ± 8.7 µM
C[N+]1(CCOP(=O)([O-])OCCCCCCCCCCC=C2C3CC4CC(C3)CC2C4)CCCCC1 [Example 20, 1-{2-[(11-Adamantylideneundecyloxy)hydroxyphosphinyloxy]ethyl}-1-methylpiperidinium inner salt]	22.6 ± 3.4 µM	5.41 ± 1.14 µM
C[N+]1(CCOP(=O)([O-])OCCCCCCCCCCC=C2C3CC4CC(C3)CC2C4)CCOCC1 [Example 21, 1-{2-[(11-Adamantylideneundecyloxy)hydroxyphosphinyloxy]ethyl}-1-methylmorpholinium inner salt]	6.64 ± 1.2 µM	5.09 ± 1.86 µM
CCCCCCCCCCCCC1CCC(OCCOP(=O)([O-])OCC[N+](C)(C)C)CC1 (stereo not drawn) [Example 26, 1-{2-{[(4-Dodecylcyclohexyloxy)ethyloxy]hydroxyphosphinyloxy}ethyl}-N,N,N-trimethylammonium inner salt]	5.65 ± 1.93 µM	9.49 ± 1.4 µM
CCCCCCCCCCCCCCC1CCC(OCCOP(=O)([O-])OCC[N+](C)(C)C)CC1 (stereo not drawn) [Example 27, 1-{2-{[(4-Tetradecylcyclohexyloxy)ethyloxy]hydroxyphosphinyloxy}ethyl}-N,N,N-trimethylammonium inner salt]	23.3 ± 3.5 µM	23.7 ± 4.4 µM
C[N+](C)(C)CCOP(=O)([O-])OCCCCCCCCCCCC1CCCCC1 [Example 28, 1-{2-[(11-Cyclohexylundecyloxy)hydroxyphosphinyloxy]ethyl}-N,N,N-trimethylammonium inner salt]	8.4 ± 0.8 µM	10.3 ± 1.3 µM
C[N+](C)(C)CCOP(=O)([O-])OCCCCCC12CC3CC(CC(C3)C1)C2 [Example 29, 1-{2-[(5-Adamantylpentyloxy)hydroxyphosphinyloxy]ethyl}-N,N,N-trimethylammonium inner salt]	> 100 µM	4.02 ± 2.3 µM
C[N+](C)(C)CCOP(=O)([O-])OCCCCCCCCCCCC12CC3CC(CC(C3)C1)C2 [Example 30, 1-{2-[(11-Adamantylundecyloxy)hydroxyphosphinyloxy]ethyl}-N,N,N-trimethylammonium inner salt]	5.97 ± 1.06 µM	2.88 ± 0.72 µM
